Results from patent US6767718B2, “Lipodepsipeptide antibiotics and methods of preparation” (BioSource Pharm, Inc., priority 2002, dated 2004).
Numbered stars: 1 amine (or outer) side, 2 acyl side, 3 side chain; on linkers, the order of the positions; unused ones are H or OH. Bridge positions count the residues as written; N and C are the ends. Square brackets hold non-standard residues; d marks the D form. Peptide text beside a SMILES is read from it. * marks the point of attachment. X1 = CC(CC(=O)O)C(N[*:1])C(=O)[*:2]; Kyn = Nc1ccccc1C(=O)C[CH](N)C(=O)O; NH(CH2)11CH3 = CCCCCCCCCCCCN*; Orn = NCCC[CH](N)C(=O)O; CO = O=C([*:1])[*:2]

Tests used:
[1] = tested on: Staphlococcus aureus strain Smith; assay: MIC by serial twofold broth dilution in Mueller Hinton broth without and with 4 mmolar CaCl2; assay type: cell-based, Staphylococcus aureus; conditions: for MIC vs. S. aureus w Ca++ / MIC vs. S. aureus wo Ca++: S. aureus strain Smith; for MIC vs. S. aureus w Ca++: Mueller Hinton broth with 4 mmolar CaCl2; for MIC vs. S. aureus wo Ca++: Mueller Hinton broth without CaCl2
[2] = tested on: gram positive bacteria including methicillin-resistant Staphylococcus aureus (MRSA) and vancomycin-resistant enterococci (VRE); conditions: including MRSA and VRE strains; cited from earlier work

CCCCCCCCCCCCNC(=O)NC(CC(=O)O)C(=O)NC1C(=O)NCC(=O)NC(CCCN)C(=O)NC(CC(=O)O)C(=O)NC(C)C(=O)NC(CC(=O)O)C(=O)NCC(=O)NC(CO)C(=O)NC(C(C)CC(=O)O)C(=O)NC(CC(=O)c2ccccc2N)C(=O)OC1C (centres unmarked) [Compound 1, N-Dodecylcarbamoyl-cyclodepsipeptide-1] ({NH(CH2)11CH3-CO}-DTG[Orn]DADGS[X1][Kyn]; ester 2-C; configuration not given here)
MIC vs. S. aureus w Ca++ [1]: 10.0 | MIC vs. S. aureus wo Ca++ [1]: >20 | Antibacterial activity (in words) ([1]; carbamoyl-linked compounds, Table 2): good antibacterial activity

CH3(CH2)9SO2-L-Phe-Asn-Asp-FMOC-cdpeptide [Compound 8]
MIC vs. S. aureus w Ca++ [1]: 5.0 | MIC vs. S. aureus wo Ca++ [1]: >20

CH3(CH2)11NHCO-Asn-Asp-FMOC-cdpeptide [Compound 2]
MIC vs. S. aureus w Ca++ [1]: 5.0 | MIC vs. S. aureus wo Ca++ [1]: >20

CCCCCCCCCC(=O)NC(Cc1cccc2ccccc12)C(=O)NC(CC(N)=O)C(=O)NC(CC(=O)O)C(=O)NC1C(=O)NCC(=O)NC(CCCN)C(=O)NC(CC(=O)O)C(=O)NC(C)C(=O)NC(CC(=O)O)C(=O)NCC(=O)NC(CO)C(=O)NC(C(C)CC(=O)O)C(=O)NC(CC(=O)c2ccccc2N)C(=O)OC1C [Compound 11, N-Decanoyl-L-β-(1-naphthyl)alanyl-cyclodepsipeptide-2]
MIC vs. S. aureus w Ca++ [1]: 0.16 | MIC vs. S. aureus wo Ca++ [1]: 2.5

CH3(CH2)8CO-Asn-Asp-cdpeptide [Compound 4]
MIC vs. S. aureus w Ca++ [1]: >10 | MIC vs. S. aureus wo Ca++ [1]: >20

CH3(CH2)8CO-Trp-Asn-Asp-tBOC-cdpeptide [tBOC daptomycin, reference compound]
MIC vs. S. aureus w Ca++ [1]: 0.6 | MIC vs. S. aureus wo Ca++ [1]: >2.5

CH3(CH2)8CO-D-Harm-Asn-Asp-cdpeptide [Compound 14]
MIC vs. S. aureus w Ca++ [1]: >10 | MIC vs. S. aureus wo Ca++ [1]: >10

CH3(CH2)8CO-L-Harm-Asn-Asp-cdpeptide [Compound 13]
MIC vs. S. aureus w Ca++ [1]: 5.0 | MIC vs. S. aureus wo Ca++ [1]: >10

CH3(CH2)8CO-Trp-Asn-Asp-cdpeptide [daptomycin, reference compound]
Activity against gram positive bacteria (in words) [2]: excellent activity | MIC vs. S. aureus w Ca++ [1]: 0.16 | MIC vs. S. aureus wo Ca++ [1]: 2.5
